Strand notation (5' to 3'): a small letter for the sugar, then the base; units joined by * are phosphorothioate-linked, units joined directly phosphodiester-linked; [ ] holds rarer units or linkages, { } end groups; capitals alone tell only the bases. d = 2'-deoxy (DNA)
Key:
Format in all cases: cell-based, human
H1975 cells = assay: Apoptosis assay (annexin V and PI, flow cytometry); conditions: 100 nM, 48 h
Description: (§1) H1975 or CL97 was seeded onto 10-cm dish and cultured overnight. Then, cells were separately treated with 100 nM DzControl or DzT790M-1 with lipofectamine 2000 (Invitrogen). After 48 h, cells were collected, double stained by annexin V and PI, and analyzed by flow cytometry following the protocol of Dead cell apoptosis kit from manufacturer (Invitrogen).

CL97 cells = assay: Apoptosis assay (annexin V and PI, flow cytometry); conditions: 100 nM, 48 h
Description: as §1

[1] = test system: EGFR E746-A750 deletion mRNA; assay: Quantitative RT-PCR of EGFR mRNA in PC9 cells; conditions: 50, 100, or 150 nM, 48 h, DzControl-treated group as 100% expression
Description: Then, A549 and PC9 cells were separately treated with 50, 100, or 150 nM control DNAzyme or DzEGFR—ΔE746-A750 with Lipofectamine 2000 for 48 h. A549 and H1975 cells were separately treated with 100 nM control DNAzyme or different DzL858Rs with Lipofectamine 2000 for 48 h. RNA purification was done by conventional TRIzol® (Invitrogen Corp., Grand Island, N.Y.) method following manufacturer's protocol. Quantitative RT-PCR was performed on 40 ng total mRNA with the LightCycler 480 system (Roche). The PCR mix contained 5 μl of 2× ProbeMaster mix, 100 nM of UPL probe (Roche Diagnostics, Penzberg, Germany) and 200 nM of primer (each) in a total volume of 10 μl. The PCR conditions were 95° C. for 10 min, followed by 60 cycles at 95° C. for 10 s, 60° C. for 10 s, and 72° C. for 2 s. Data were analyzed by LC480 software (Roche Diagnostics). The relative amount of EGFR mRNA was normalized to ACTB mRNA. The sequences of PCR primers are as follows: […]

[2] = test system: PC9 cells (E746-A750 deletion EGFR); assay: Cell proliferation (MTT); conditions: 48 h, DzControl-treated group as 0% death
Description: (§2) Then, cells were separately treated with 50, 100, or 150 nM control DNAzyme or DzEGFR—ΔE746-A750 with Lipofectamine 2000 for 48 h.

[3] = test system: A549 cells (wild type EGFR); assay: Cell proliferation (MTT); conditions: 150 nM of DNAzyme, 48 h
Description: as §2

wild-type EGFR mRNA = assay: Quantitative real-time PCR of EGFR mRNA knockdown; conditions: A549 cells; 50, 100, or 150 nM; 48 h
Description: A549, CL1-5, H1975, or CL97 was seeded onto 6-well at 3×10^5 cells/well and cultured overnight. Then, cells were separately treated with 100 nM DzControl or DzT790M-1 with lipofectamine 2000 (Invitrogen). After 48 h, total mRNA were extracted from DNAzyme-treated cells by Mestrisol following manufacturer's protocol. cDNA were synthesized by using RT III kit with random hexamers as primers (Invitrogen). The PCR primers were synthesized by Genomics BioSci & Tech (Taipei, Taiwan). The sequences of PCR primers are listed as follows: […]
The parameters for PCR were: 95° C. for 10 min, then 25 cycles of PCR at 95° C. for 30 s, 60° C. for 30 s, and 72° C. for 60 s. 3% agarose gels were used for electrophoresis of PCR products. The intensity of bands were quantified by Image J. Quantitative RT-PCR was performed on 40 ng total mRNA with the LightCycler 480 system (Roche). The PCR mix contained 5 μl of 2× Probe Master mix, 100 nM of UPL probe (Roche Diagnostics, Penzberg, Germany), 200 nM of forward primer and reverse primer, 0.1 ul RNAseout (Invitrogen), and 0.025 ul RTIII enzyme (Invitrogen) in a total volume of 10 μl. PCR parameters were as follows: 50° C. for 40 min, then 45 cycles of PCR at 95° C. for 10 s, 60° C. for 10 s, and 72° C. for 2 s. Data were analyzed by LC480 software (Roche Diagnostics, Penzberg, Germany). The relative amount of EGFR mRNA was normalized to ACTB mRNA. The sequences of PCR primers are as follows: […]
To examine the allele selectivity of DzT790M-1, EGFR mRNA knockdown efficiency was detected in two cell lines harboring wild-type EGFR (A549, CL1-5) and two cell lines containing EGFR T790M mutation (H1975, CL97). A549, CL1-5, H1975, or CL97 was seeded onto 6-well at 3×10^5 cells/well and cultured overnight. […]
Then, A549 and PC9 cells were separately treated with 50, 100, or 150 nM control DNAzyme or DzEGFR—ΔE746-A750 with Lipofectamine 2000 for 48 h. […] Quantitative RT-PCR was performed on 40 ng total mRNA with the LightCycler 480 system (Roche). […] Data were analyzed by LC480 software (Roche Diagnostics). […]

wild-type EGFR = assay: Western immunoblotting of EGFR expression and downstream signaling in wild-type EGFR cell lines; conditions: A549 and CL1-5 cells, 100 nM
Description: A549, CL1-5, H1975, or CL97 was seeded onto 6-well at 3×10^5 cells/well and cultured overnight. Then, cells were separately treated with 100 nM DzControl or DzT790M-1 with lipofectamine 2000 (Invitrogen). The transfected A549 and CL1-5 cells were serum-starved for 24 h and treated with 100 ng/ml of EGF at 37° C. for 15 min. 72 h after transfection, cell were collected for analysis. Cells were washed twice by ice-cold PBS and then total protein was extracted by RIPA buffer with protease inhibitor (Roche). 50 μg of total protein from the supernatants were boiled for 5 min at 95° C. The samples were resolved on 10% SDS-PAGE gel and transferred onto nitrocellulose membranes. EGFR expression and downstream signaling were detected by using primary antibodies specific to human pEGFR(Y1068) (Cell signaling), tEGFR (Santa Cruz), pSTAT3 (Y705) (Cell signaling), tSTAT3 (Cell signaling), pAKT (5473)(Cell signaling), tAKT (Santa Cruz), pERK (T202/Y204) (Cell signaling), tERK (Santa Cruz), and cleaved PARP (Cell signaling) at 1:1000 dilution and β-actin (Santa Cruz) at 1:10000 dilution, respectively. Secondary antibodies against rabbit IgG or mouse IgG was used at 1:5000 dilution. Protein bands on membrane were visualized by exposure to the chemiluminescence substrate.
EGFR belongs to receptor tyrosine kinases. The binding of its extracellular ligands triggers receptor dimerization, tyrosine residues phosphorylation, and downstream signaling activation including signal transducer and activator of transcription 3 (STAT3), Akt, extracellular signal regulated kinases (ERK), and others. To examine the effects of DzT790M on protein expression level of EGFR and its downstream signaling, western immunoblotting was performed on DzT790M transfected cells. A549, CL1-5, H1975, or CL97 was seeded onto 6-well at 3×10^5 cells/well and cultured overnight. Then, cells were separately treated with 100 nM DzControl or DzT790M-1 with lipofectamine 2000 (Invitrogen). The transfected A549 and CL1-5 cells were serum-starved for 24 h and treated with 100 ng/ml of EGF at 37° C. for 15 min. 72 h after transfection, cell were collected for analysis. Cells were washed twice by ice-cold PBS and then total protein was extracted by RIPA buffer with protease inhibitor (Roche). […] Also, activation of downstream STAT3, AKT, and ERK signaling after EGF treatment were not inhibited by DzT790M-1 or DzT790M-2 transfection.
CL1-5 (EGFR wild-type) or H1975 (EGFR T790M) were seeded onto 6-well at 3×10^5 cells/well and cultured overnight. […] The transfected CL1-5 cells were serum-starved for 24 h and treated with 100 ng/ml of EGF at 37° C. for 15 min. 72 h after transfection, cells were collected for western blotting analysis following the above mentioned procedure. […]

DzControl: control DNAzyme not complementary to any mRNA in human cells: CATCGGAGGCTAGCTACAACGAGACAGCTG (DNA dC*dAdTdCdGdGdAdGdGdCdTdAdGdCdTdAdCdAdAdCdGdAdGdAdCdAdGdCdT*dG; further chemistry not fully specified) [reference compound]
apoptotic cells (H1975 cells): 3.6%
dead cells (annexin V and PI double positive) (H1975 cells): 12.4%
percentage of apoptotic cells in whole cell population (CL97 cells): 5.2%
percentage of dead cells in whole cell population (CL97 cells): 17%

DzEGFR—ΔE746-A750: DNAzyme against EGFR E746-A750 deletion: GGAGATGTGTCAGCTGACTCGAATGATAGCGAC (DNA, backbone and methylation of C not given here)
mutant EGFR expression [1]: suppressed
death of PC9 cells [2]: 60%
viability of A549 cells affected [3]: 20%
binding and action on wild type EGFR (wild-type EGFR mRNA): did not bind and act

DzT790M-2: 10-23 DNAzyme against EGFR T790M mRNA, arms 8/8: GAGCTGCAGGCTAGCTACAACGAGATGAGCT (DNA, backbone and methylation of C not given here)
activation of downstream STAT3, AKT, and ERK signaling after EGF treatment (wild-type EGFR; 100 ng/ml EGF 15 min): not inhibited
protein level of EGFR compared to DzControl group (wild-type EGFR; 72 h after transfection): did not decreased
